According to ChEMBL document CHEMBL5247617, “4-Arylthiosemicarbazide derivatives - Pharmacokinetics, toxicity and anti-Toxoplasma gondii activity in vivo” (Eur J Med Chem, 2022):
Active and inactive are the calls of the source. The calls are words filed in the database; no cut-off is given here.

How the values were obtained:
Toxoplasma gondii [1] = assay: Antiparasitic activity against Toxoplasma gondii RH infected in human Hs27 cells assessed as parasitic growth inhibition incubated for 24 hrs followed by [5,6-3H] uracil addition and measured after 72 hrs by liquid scintillation counter analysis; assay type: functional, organism-based
L929 = assay: Cytotoxicity against mouse L929 cells assessed as reduction in cell viability incubated for 24 hrs by MTT assay; assay type: toxicity, cell-based; conditions: l929, 24 h
HS27 = assay: Cytotoxicity against human HS27 cells assessed as reduction in cell viability; assay type: toxicity, cell-based
[2] = Toxicity in BALB/c mouse assessed as changes in body weight at 1000 mg/kg, po administered once and observed for 10 days; assay type: organism-based; conditions: in vivo, 240 h, time 10 day
[3] = Elimination half-life in BALB/c mouse serum at 50 mg/kg, po measured upto 60 mins by LC-MS/MS analysis; assay type: ADME, organism-based; conditions: in vivo, 1 h
[4] = Elimination half-life in BALB/c mouse serum at 25 mg/kg, po measured upto 60 mins by LC-MS/MS analysis; assay type: ADME, organism-based; conditions: in vivo, 1 h
[5] = Tmax in BALB/c mouse serum at 50 mg/kg, po measured upto 60 mins by LC-MS/MS analysis; assay type: ADME, organism-based; conditions: in vivo, 1 h
[6] = Tmax in BALB/c mouse serum at 25 mg/kg, po measured upto 60 mins by LC-MS/MS analysis; assay type: ADME, organism-based; conditions: in vivo, 1 h
[7] = AUC in BALB/c mouse serum at 50 mg/kg, po measured upto 60 mins by LC-MS/MS analysis; assay type: ADME, organism-based; parameters: time < 60 min, dose 50 mg/kg, route po; conditions: in vivo, 1 h
[8] = AUC in BALB/c mouse serum at 25 mg/kg, po measured upto 60 mins by LC-MS/MS analysis; assay type: ADME, organism-based; parameters: dose 25 mg/kg, time < 60 min, route po; conditions: in vivo, 1 h
[9] = Cmax in BALB/c mouse serum at 50 mg/kg, po measured upto 60 mins by LC-MS/MS analysis; assay type: ADME, organism-based; parameters: time < 60 min, dose 50 mg/kg, route po; conditions: in vivo, 1 h
[10] = Cmax in BALB/c mouse serum at 25 mg/kg, po measured upto 60 mins by LC-MS/MS analysis; assay type: ADME, organism-based; parameters: dose 25 mg/kg, time < 60 min, route po; conditions: in vivo, 1 h
[11] = Oral bioavailability in BALB/c mouse serum at 50 mg/kg measured upto 60 mins by LC-MS/MS analysis; assay type: ADME, organism-based
[12] = Oral bioavailability in BALB/c mouse serum at 25 mg/kg measured upto 60 mins by LC-MS/MS analysis; assay type: ADME, organism-based
[13] = Elimination half-life in BALB/c mouse brain at 50 mg/kg, po measured upto 24 hrs by LC-MS/MS analysis; assay type: ADME, organism-based; conditions: read-out: beta t1/2 (converted)
[14] = Elimination half-life in BALB/c mouse brain at 25 mg/kg, po measured upto 24 hrs by LC-MS/MS analysis; assay type: ADME, organism-based; conditions: read-out: beta t1/2 (converted)
[15] = Tmax in BALB/c mouse brain at 50 mg/kg, po measured upto 24 hrs by LC-MS/MS analysis; assay type: ADME, organism-based
[16] = Tmax in BALB/c mouse brain at 25 mg/kg, po measured upto 24 hrs by LC-MS/MS analysis; assay type: ADME, organism-based
[17] = AUC in BALB/c mouse brain at 50 mg/kg, po measured upto 24 hrs by LC-MS/MS analysis; assay type: ADME, organism-based; parameters: dose 50 mg/kg, time < 24 hrs, route po
[18] = AUC in BALB/c mouse brain at 25 mg/kg, po measured upto 24 hrs by LC-MS/MS analysis; assay type: ADME, organism-based; parameters: time < 24 hrs, dose 25 mg/kg, route po
[19] = Cmax in BALB/c mouse brain at 50 mg/kg, po measured upto 24 hrs by LC-MS/MS analysis; assay type: ADME, organism-based; parameters: time < 24 hrs, dose 50 mg/kg, route po; conditions: in vivo
[20] = Cmax in BALB/c mouse brain at 25 mg/kg, po measured upto 24 hrs by LC-MS/MS analysis; assay type: ADME, organism-based; parameters: time < 24 hrs, dose 25 mg/kg, route po; conditions: in vivo
[21] = Oral bioavailability in BALB/c mouse brain at 50 mg/kg measured upto 24 hrs by LC-MS/MS analysis; assay type: ADME, organism-based
[22] = Oral bioavailability in BALB/c mouse brain at 25 mg/kg measured upto 24 hrs by LC-MS/MS analysis; assay type: ADME, organism-based
[23] = Toxicity in BALB/c mouse assessed as changes in body weight at 25 to 50 mg/kg, po administered for 5 days and measured on day 1 and day 14; assay type: organism-based; conditions: in vivo, 120 h, dose 25-50 mg/kg, time 5 day
[24] = Toxicity in BALB/c mouse assessed as changes in liver weight at 50 mg/kg, po administered for 5 days and measured after 1 day; assay type: organism-based; conditions: in vivo, 120 h, time 5 day
[25] = Toxicity in BALB/c mouse assessed as changes in liver weight at 50 mg/kg, po administered for 5 days and measured after 14 days; assay type: organism-based; conditions: in vivo, 120 h, time 5 day
[26] = Toxicity in BALB/c mouse assessed as changes in serum AST level at 50 mg/kg, po administered for 5 days and measured on day 1 and day 14 by ELISA method; assay type: organism-based; conditions: in vivo, 120 h, time 5 day
[27] = Toxicity in BALB/c mouse assessed as increase in serum ALT level at 50 mg/kg, po administered for 5 days and measured after 14 days by ELISA method; assay type: organism-based; conditions: in vivo, 120 h, time 5 day
[28] = Toxicity in BALB/c mouse assessed as changes in creatinine level at 50 mg/kg, po administered for 5 days and measured on day 1 and day 14 by colorimetric assay; assay type: organism-based; conditions: in vivo, 120 h, time 5 day
[29] = Toxicity in BALB/c mouse assessed as microvesicular steatosis of hepatocytes at 50 mg/kg, po administered for 5 days and measured after 1 day by hematoxylin-eosin staining based microscopic analysis; assay type: organism-based; conditions: in vivo, 120 h, time 5 day
[30] = Toxicity in BALB/c mouse assessed as disseminated necrosis of hepatocytes at 50 mg/kg, po administered for 5 days and measured after 1 day by hematoxylin-eosin staining based microscopic analysis; assay type: organism-based; conditions: in vivo, 120 h, time 5 day
[31] = Toxicity in BALB/c mouse assessed as disseminated necrosis of hepatocytes at 50 mg/kg, po administered for 5 days and measured after 14 days by hematoxylin-eosin staining based microscopic analysis; assay type: organism-based; conditions: in vivo, 120 h, time 5 day
[32] = Toxicity in BALB/c mouse assessed as changes in size of hepatocyte nuclei at 50 mg/kg, po administered for 5 days and measured after 14 days by hematoxylin-eosin staining based microscopic analysis; assay type: organism-based; conditions: hepatocytes, 120 h, time 5 day
Toxoplasma gondii [33] = assay: Antiparasitic activity against Toxoplasma gondii RH infected in BALB/c mouse assessed as prolongation of animal survival at 25 to 50 mg/kg, po administered for 5 days starting from 24 hrs post infection by Kaplan-Meier method; assay type: functional, organism-based; conditions: dose 25-50 mg/kg, time 5.0 day
Toxoplasma gondii [34] = assay: Antiparasitic activity against Toxoplasma gondii RH infected in BALB/c mouse assessed as survival rate at 50 mg/kg, po administered every 12 hrs for 5 days starting from 24 hrs post infection by Kaplan-Meier method; assay type: functional; conditions: 120 h, time 5 day
Toxoplasma gondii [35] = assay: Antiparasitic activity against Toxoplasma gondii RH infected in BALB/c mouse assessed as reduction of daughter tachyzoites in blood at 25 to 50 mg/kg, po administered for 5 days starting from 24 hrs post infection by real-time qPCR analysis; assay type: functional, organism-based; conditions: dose 25-50 mg/kg, time 5.0 day
Toxoplasma gondii [36] = assay: Antiparasitic activity against Toxoplasma gondii RH infected in BALB/c mouse assessed as decrease in IFNgamma level in serum at 25 to 50 mg/kg, po administered for 5 days starting from 24 hrs post infection by ELISA method; assay type: functional, organism-based; conditions: dose 25-50 mg/kg, time 5.0 day
Toxoplasma gondii [37] = assay: Antiparasitic activity against Toxoplasma gondii RH infected in BALB/c mouse assessed as decrease in number of bradyzoite gene copies in brain at 50 mg/kg, po administered every 24 hrs for 5 days starting from 24 hrs post infection by real-time qPCR analysis; assay type: functional, organism-based; conditions: time 5.0 day
Toxoplasma gondii [38] = assay: Antiparasitic activity against Toxoplasma gondii RH infected in BALB/c mouse assessed as reduction of bradyzoite gene copies in heart at 25 mg/kg, po administered every 24 hrs for 5 days starting from 24 hrs post infection by real-time qPCR analysis; assay type: functional, organism-based; conditions: time 5.0 day
Toxoplasma gondii [39] = assay: Antiparasitic activity against Toxoplasma gondii RH infected in BALB/c mouse assessed as reduction in number of bradyzoite gene copies in muscles at 25 mg/kg, po administered every 24 hrs for 5 days starting from 24 hrs post infection by real-time qPCR analysis; assay type: functional; conditions: time 5 day
Toxoplasma gondii [40] = assay: Antiparasitic activity against Toxoplasma gondii DX infected in C3H/HeOuJ mouse assessed as prolongation of survival at 25 to 50 mg/kg, po administered for 5 days starting from 24 hrs post infection by Kaplan-Meier method; assay type: functional, organism-based; conditions: dose 25-50 mg/kg, time 5.0 day
[41] = Toxicity in BALB/c mouse assessed as increase in liver weight at 20 mg/kg, po administered for 5 days and measured after 1 day; assay type: organism-based; conditions: in vivo, 120 h, time 5 day
[42] = Toxicity in BALB/c mouse assessed as changes in liver weight at 20 mg/kg, po administered for 5 days and measured after 14 days; assay type: organism-based; conditions: in vivo, 120 h, time 5 day
[43] = Toxicity in BALB/c mouse assessed as increase in serum AST level at 20 mg/kg, po administered for 5 days and measured on day 1 and day 14 by ELISA method; assay type: organism-based; conditions: in vivo, 120 h, time 5 day
[44] = Toxicity in BALB/c mouse assessed as increase in serum ALT level at 20 mg/kg, po administered for 5 days and measured on day 1 and day 14 by ELISA method; assay type: organism-based; conditions: in vivo, 120 h, time 5 day
[45] = Toxicity in BALB/c mouse assessed as increase in creatinine level at 20 mg/kg, po administered for 5 days and measured after 1 day by colorimetric assay; assay type: organism-based; conditions: in vivo, 120 h, time 5 day
[46] = Toxicity in BALB/c mouse assessed as hydropic degeneration at 20 mg/kg, po administered for 5 days and measured after 1 day by hematoxylin-eosin staining based microscopic analysis; assay type: organism-based; conditions: in vivo, 120 h, time 5 day
Toxoplasma gondii [47] = assay: Antiparasitic activity against Toxoplasma gondii RH infected in BALB/c mouse assessed as prolongation of animal survival at 20 mg/kg, po administered every 24 hrs for 5 days starting from 24 hrs post infection by Kaplan-Meier method; assay type: functional, organism-based; conditions: time 5.0 day
Toxoplasma gondii [48] = assay: Antiparasitic activity against Toxoplasma gondii RH infected in BALB/c mouse assessed as decrease in IFNgamma level in serum at 20 mg/kg, po administered every 24 hrs for 5 days starting from 24 hrs post infection by ELISA method; assay type: functional, organism-based; conditions: time 5.0 day
Toxoplasma gondii [49] = assay: Antiparasitic activity against Toxoplasma gondii RH infected in BALB/c mouse assessed as reduction of bradyzoite gene copies in brain at 20 mg/kg, po administered every 24 hrs for 5 days starting from 24 hrs post infection by real-time qPCR analysis; assay type: functional, organism-based; conditions: time 5.0 day
Toxoplasma gondii [50] = assay: Antiparasitic activity against Toxoplasma gondii RH infected in BALB/c mouse assessed as reduction in number of bradyzoite gene copies in muscles at 20 mg/kg, po administered every 24 hrs for 5 days starting from 24 hrs post infection by real-time qPCR analysis; assay type: functional; conditions: time 5 day
Toxoplasma gondii [51] = assay: Antiparasitic activity against Toxoplasma gondii DX infected in C3H/HeOuJ mouse assessed as prolongation of survival at 20 mg/kg, po administered every 24 hrs for 5 days starting from 24 hrs post infection by Kaplan-Meier method; assay type: functional, organism-based; conditions: time 5.0 day

Cc1nc[nH]c1C(=O)NNC(=S)Nc1ccc([N+](=O)[O-])cc1
IC50 (Toxoplasma gondii [1]): 67.5 µM | CC30 (L929): 682.98 µM | CC30 (HS27): 697.67 µM | Activity [2]: Non-Toxic | beta t1/2 [3]: 24 min | beta t1/2 [4]: 52.8 min | Tmax [5]: 15 min | Tmax [6]: 30 min | AUC [7]: 40640 ng·h/mL | AUC [8]: 53700 ng·h/mL | Cmax [9]: 11080 ng/mL | Cmax [10]: 6400 ng/mL | bioavailability [11]: 4.06% | bioavailability [12]: 10.7% | half-life [13]: 54.6 min | half-life [14]: 175 min | Tmax [15]: 30 min | Tmax [16]: 120 min | AUC at 24 h [17]: 47.5 ng·h/mL | AUC at 24 h [18]: 24.9 ng·h/mL | Cmax [19]: 32.27 ng/mg | Cmax [20]: 7.74 ng/mg | bioavailability [21]: 1.17% | bioavailability [22]: 0.46% | Activity [23]: Non-Toxic | Activity [24]: Non-Toxic | Activity [25]: Non-Toxic | Activity [26]: Non-Toxic | Activity [27]: Non-Toxic | Activity [28]: Non-Toxic | Activity [29]: Toxic | Activity [30]: Toxic | Activity [31]: Toxic | Activity [32]: Toxic | Activity (Toxoplasma gondii [33]): Active | survival at 50 mg/kg (Toxoplasma gondii [34]): 20% | Activity (Toxoplasma gondii [35]): Active | Activity (Toxoplasma gondii [36]): Active | Activity (Toxoplasma gondii [37]): Active | Activity (Toxoplasma gondii [38]): Active | Activity (Toxoplasma gondii [39]): 20 | Activity (Toxoplasma gondii [40]): Active

COc1cc(Cc2cnc(N)nc2N)cc(OC)c1OC [TRIMETHOPRIM]
Activity [41]: Toxic | Activity [42]: Non-Toxic | Activity [43]: Non-Toxic | Activity [44]: Non-Toxic | Activity [45]: Toxic | Activity [46]: Toxic | Activity (Toxoplasma gondii [47]): Active | Activity (Toxoplasma gondii [48]): inactive | Activity (Toxoplasma gondii [49]): Active | Activity (Toxoplasma gondii [50]): 36 | Activity (Toxoplasma gondii [51]): Active
